Experimental data reported in patent US20170362388A1, “Disulfide Polymers and Methods of Use” (The Brigham and Women's Hospital, Inc., priority 2014, published 2017).
In brackets after ≈: the same amount, converted by molar mass.

Assays:
Hela and DU145 cells = assay: In vitro anticancer performance of docetaxel-loaded NPs, alamar blue; assay type: cell-based
Description: Hela, MCF-7, A549, and DU145 cells were used to evaluate in vitro anticancer performance of docetaxel-loaded NPs (Cys-OMe-8/Cys-8E NPs with 10 wt % docetaxel loaded with docetaxel concentration ranging from 1 ng/ml to 500 ng/mL). Hela, MCF-7, A549, and DU145 cells were used. Cells (5,000 cells/well) were seeded in 96-well plates the day before use, and cultured according to recommendations from ATCC. Cells were treated with different concentrations of free docetaxel or docetaxel loaded NP for 4 h or 48 h (N=5). For the 4 h experiment, treated cells were washed twice with PBS buffer and the plate was incubated for another 44 h after replacement of fresh medium. Cell viability at 48 h was determined by alamar blue assay. As a control, the polymer cytotoxicity on Hela cells was ascertained using empty NPs.
In FIGS. 24B and 24D: DU145 cells were treated with docetaxel-loaded NPs for 4 h and 48 h, respectively.
The Alamar blue assay was used to evaluate the NP cytotoxicity. Briefly, 10% 0.1 mg/mL alamar blue was first added into each well and the plate was incubated for another 2 h. Then the fluorescence intensity was measured by a microplate reader (excitation/emission=530 nm/590 nm).

[1] = test system: A549 Human Lung Carcinoma Xenograft; assay: Antitumor efficacy of docetaxel-loaded NPs; assay type: in vivo, mice; conditions: 5 mg/kg docetaxel equivalent, iv tail vein, two injections
Description: A549 cell suspension (100 μL, equivalent to 5×10^6 cells) was first mixed with 100 μL Matrigel (BD scientific Co.), then subcutaneously injected into the right flank of 5-week-old female athymic nude mice (Charles River). The treatment was initiated on the 9th day, when solid tumor reached ˜100 mm^3. Tumor-bearing mice were divided into 4 groups and injected […] on the 9th and 23rd days after tumor inoculation with: (i) 1× PBS (ii) docetaxel 5 mg/kg (MTD), (iii) Cys-OMe-8/Cys-8E NPs at a docetaxel equivalent dose of 5 mg/kg (MTD), (iv) Cys-OMe-8/Cys-8E NPs at a docetaxel equivalent dose of 10 mg/kg. Control or drugs were administered by intravenous injection in the lateral tail vein (10 μL per g of body weight). Tumor dimension and body weight were recorded every other day. Tumor volume was calculated as follows: Volume [mm^3]=[…]. Mice were regularly monitored (every other day) for physical performance and were euthanized upon exceeding 15% weight loss, over 1500 mm^3 volume or if tumor ulceration was observed. Prior to the experiment, the maximum tolerated dose (MTD) of free docetaxel was established in normal Balb/c mice at 5 mg/kg. Tumor volumes at Day 30 were compared using the ANOVA analysis.
FIG. 30 is a plot of the antitumor effects of docetaxel-loaded Cys-OMe-8/Cys-8E nanoparticles in A549 tumor bearing mice. […]

Maximum tolerated dose = conditions: mouse, in vivo; normal Balb/c mice

CC(=O)O[C@@]12CO[C@@H]1C[C@H](O)[C@@]1(C)C(=O)[C@H](O)C3=C(C)[C@@H](OC(=O)[C@H](O)[C@@H](NC(=O)OC(C)(C)C)c4ccccc4)C[C@@](O)([C@@H](OC(=O)c4ccccc4)[C@H]21)C3(C)C [docetaxel]
IC50 (Hela and DU145 cells; 4 h treatment, viability at 48 h): ~0.1 µg/mL (≈ 0.124 µM)
IC50 (Hela and DU145 cells; 48 h treatment): ~0.005 µg/mL (≈ 0.00619 µM)
Tumor inhibition [1]: only limited tumor inhibition
MTD (Maximum tolerated dose): 5 mg/kg
